{"source": "ChEMBL document CHEMBL4393656", "about": "“Cationic biaryl 1,2,3-triazolyl peptidomimetic amphiphiles targeting Clostridioides (Clostridium) difficile: Synthesis, antibacterial evaluation and an in vivo C. difficile infection model” (Eur J Med Chem, 2019)", "data": [{"tested_on": "Staphylococcus aureus", "test": "Growth inhibition of Staphylococcus aureus ATCC 29213 incubated in MHB broth for 24 hrs", "format": "organism-based", "details": "not given", "units": {"MIC": "µg/mL"}, "values": [{"molecule": "CC(C)CCOc1ccccc1-c1ccccc1OCc1cn([C@H](CCCCN)C(=O)NCc2ccccc2)nn1.Cl", "MIC": 8}, {"molecule": "CC(C)CCOc1ccc2ccccc2c1-c1c(OCC(=O)N[C@H](CCCNC(=N)N)C(=O)NCCc2ccccc2)ccc2ccccc12.Cl", "MIC": 2}, {"molecule": "CC(C)CCOc1ccccc1-c1ccccc1OCc1cn([C@H](CCCCN)C(=O)NC2CCCCC2)nn1.Cl", "MIC": 8}, {"molecule": "CCCN(CC1CC1)C(=O)[C@@H](CCCNC(=N)N)n1cc(COc2ccccc2-c2ccccc2OCCC(C)C)nn1.Cl", "MIC": 4}, {"molecule": "CC(C)CCOc1ccccc1-c1ccccc1OCc1cn([C@H](CCCCN)C(=O)NCCc2ccccc2)nn1.Cl", "MIC": 8}]}, {"tested_on": "Enterococcus faecalis", "test": "Growth inhibition of Enterococcus faecalis ATCC 29212 incubated in MHB broth for 24 hrs", "format": "organism-based", "details": "not given", "units": {"MIC": "µg/mL"}, "values": [{"molecule": "CC(C)CCOc1ccccc1-c1ccccc1OCc1cn([C@H](CCCCN)C(=O)NCc2ccccc2)nn1.Cl", "MIC": 16}, {"molecule": "CC(C)CCOc1ccc2ccccc2c1-c1c(OCC(=O)N[C@H](CCCNC(=N)N)C(=O)NCCc2ccccc2)ccc2ccccc12.Cl", "MIC": 4}, {"molecule": "CC(C)CCOc1ccccc1-c1ccccc1OCc1cn([C@H](CCCCN)C(=O)NC2CCCCC2)nn1.Cl", "MIC": 16}, {"molecule": "CCCN(CC1CC1)C(=O)[C@@H](CCCNC(=N)N)n1cc(COc2ccccc2-c2ccccc2OCCC(C)C)nn1.Cl", "MIC": 4}, {"molecule": "CC(C)CCOc1ccccc1-c1ccccc1OCc1cn([C@H](CCCCN)C(=O)NCCc2ccccc2)nn1.Cl", "MIC": 8}]}, {"tested_on": "Streptococcus pneumoniae", "test": "Growth inhibition of Streptococcus pneumoniae ATCC 49619 incubated in MHB medium with lysed horse blood and 5% CO2 for 24 hrs", "format": "organism-based", "details": "not given", "units": {"MIC": "µg/mL"}, "values": [{"molecule": "CC(C)CCOc1ccccc1-c1ccccc1OCc1cn([C@H](CCCCN)C(=O)NCc2ccccc2)nn1.Cl", "MIC": 8}, {"molecule": "CC(C)CCOc1ccc2ccccc2c1-c1c(OCC(=O)N[C@H](CCCNC(=N)N)C(=O)NCCc2ccccc2)ccc2ccccc12.Cl", "MIC": 2}, {"molecule": "CC(C)CCOc1ccccc1-c1ccccc1OCc1cn([C@H](CCCCN)C(=O)NC2CCCCC2)nn1.Cl", "MIC": 8}, {"molecule": "CCCN(CC1CC1)C(=O)[C@@H](CCCNC(=N)N)n1cc(COc2ccccc2-c2ccccc2OCCC(C)C)nn1.Cl", "MIC": 2}, {"molecule": "CC(C)CCOc1ccccc1-c1ccccc1OCc1cn([C@H](CCCCN)C(=O)NCCc2ccccc2)nn1.Cl", "MIC": 8}]}, {"tested_on": "Clostridioides difficile", "test": "Antibacterial activity against Clostridium difficile ATCC 700057 incubated for 2 to 4 hrs in pre-reduced brucella broth supplemented with haemin/vitamin K and further incubation in anaerobic condition for 48 hrs", "format": "functional", "details": "not given", "units": {"MIC": "µg/mL"}, "values": [{"molecule": "CC(C)CCOc1ccccc1-c1ccccc1OCc1cn([C@H](CCCCN)C(=O)NCc2ccccc2)nn1.Cl", "MIC": 32}, {"molecule": "CC(C)CCOc1ccc2ccccc2c1-c1c(OCC(=O)N[C@H](CCCNC(=N)N)C(=O)NCCc2ccccc2)ccc2ccccc12.Cl", "MIC": 32}, {"molecule": "CC(C)CCOc1ccccc1-c1ccccc1OCc1cn([C@H](CCCCN)C(=O)NC2CCCCC2)nn1.Cl", "MIC": 16}, {"molecule": "CCCN(CC1CC1)C(=O)[C@@H](CCCNC(=N)N)n1cc(COc2ccccc2-c2ccccc2OCCC(C)C)nn1.Cl", "MIC": 16}, {"molecule": "CC(C)CCOc1ccccc1-c1ccccc1OCc1cn([C@H](CCCCN)C(=O)NCCc2ccccc2)nn1.Cl", "MIC": 32}]}, {"tested_on": "Clostridioides difficile", "test": "Antibacterial activity against Clostridium difficile NSW132 RT027 incubated for 2 to 4 hrs in pre-reduced brucella broth supplemented with haemin/vitamin K and further incubation in anaerobic condition for 48 hrs", "format": "functional", "details": "not given", "units": {"MIC": "µg/mL"}, "values": [{"molecule": "CC(C)CCOc1ccccc1-c1ccccc1OCc1cn([C@H](CCCCN)C(=O)NCc2ccccc2)nn1.Cl", "MIC": 32}, {"molecule": "CC(C)CCOc1ccc2ccccc2c1-c1c(OCC(=O)N[C@H](CCCNC(=N)N)C(=O)NCCc2ccccc2)ccc2ccccc12.Cl", "MIC": 32}, {"molecule": "CC(C)CCOc1ccccc1-c1ccccc1OCc1cn([C@H](CCCCN)C(=O)NC2CCCCC2)nn1.Cl", "MIC": 32}, {"molecule": "CCCN(CC1CC1)C(=O)[C@@H](CCCNC(=N)N)n1cc(COc2ccccc2-c2ccccc2OCCC(C)C)nn1.Cl", "MIC": 16}, {"molecule": "CC(C)CCOc1ccccc1-c1ccccc1OCc1cn([C@H](CCCCN)C(=O)NCCc2ccccc2)nn1.Cl", "MIC": 32}]}, {"tested_on": "Escherichia coli", "test": "Growth inhibition of Escherichia coli ATCC 25922 incubated for 18 hrs", "format": "organism-based", "details": "not given", "units": {"MIC": "µg/mL"}, "values": [{"molecule": "CC(C)CCOc1ccccc1-c1ccccc1OCc1cn([C@H](CCCCN)C(=O)NCc2ccccc2)nn1.Cl", "MIC": "> 32"}, {"molecule": "CC(C)CCOc1ccc2ccccc2c1-c1c(OCC(=O)N[C@H](CCCNC(=N)N)C(=O)NCCc2ccccc2)ccc2ccccc12.Cl", "MIC": "> 32"}, {"molecule": "CC(C)CCOc1ccccc1-c1ccccc1OCc1cn([C@H](CCCCN)C(=O)NC2CCCCC2)nn1.Cl", "MIC": "> 32"}, {"molecule": "CCCN(CC1CC1)C(=O)[C@@H](CCCNC(=N)N)n1cc(COc2ccccc2-c2ccccc2OCCC(C)C)nn1.Cl", "MIC": "> 32"}, {"molecule": "CC(C)CCOc1ccccc1-c1ccccc1OCc1cn([C@H](CCCCN)C(=O)NCCc2ccccc2)nn1.Cl", "MIC": "> 32"}, {"molecule": "COLISTIN", "MIC": 0.125}]}, {"tested_on": "Klebsiella pneumoniae", "test": "Growth inhibition of Klebsiella pneumoniae ATCC 700603 incubated for 18 hrs", "format": "organism-based", "details": "not given", "units": {"MIC": "µg/mL"}, "values": [{"molecule": "CC(C)CCOc1ccccc1-c1ccccc1OCc1cn([C@H](CCCCN)C(=O)NCc2ccccc2)nn1.Cl", "MIC": "> 32"}, {"molecule": "CC(C)CCOc1ccc2ccccc2c1-c1c(OCC(=O)N[C@H](CCCNC(=N)N)C(=O)NCCc2ccccc2)ccc2ccccc12.Cl", "MIC": "> 32"}, {"molecule": "CC(C)CCOc1ccccc1-c1ccccc1OCc1cn([C@H](CCCCN)C(=O)NC2CCCCC2)nn1.Cl", "MIC": "> 32"}, {"molecule": "CCCN(CC1CC1)C(=O)[C@@H](CCCNC(=N)N)n1cc(COc2ccccc2-c2ccccc2OCCC(C)C)nn1.Cl", "MIC": "> 32"}, {"molecule": "CC(C)CCOc1ccccc1-c1ccccc1OCc1cn([C@H](CCCCN)C(=O)NCCc2ccccc2)nn1.Cl", "MIC": "> 32"}, {"molecule": "COLISTIN", "MIC": 0.25}]}, {"tested_on": "Acinetobacter baumannii", "test": "Growth inhibition of Acinetobacter baumannii ATCC 19606 incubated for 18 hrs without shaking by absorbance based monochromator plate reader analysis", "format": "organism-based, ATCC 19606 = CIP 70.34 = JCM 6841", "details": "in vitro", "units": {"MIC": "µg/mL"}, "values": [{"molecule": "CC(C)CCOc1ccccc1-c1ccccc1OCc1cn([C@H](CCCCN)C(=O)NCc2ccccc2)nn1.Cl", "MIC": 32}, {"molecule": "CC(C)CCOc1ccc2ccccc2c1-c1c(OCC(=O)N[C@H](CCCNC(=N)N)C(=O)NCCc2ccccc2)ccc2ccccc12.Cl", "MIC": "> 32"}, {"molecule": "CC(C)CCOc1ccccc1-c1ccccc1OCc1cn([C@H](CCCCN)C(=O)NC2CCCCC2)nn1.Cl", "MIC": 32}, {"molecule": "CCCN(CC1CC1)C(=O)[C@@H](CCCNC(=N)N)n1cc(COc2ccccc2-c2ccccc2OCCC(C)C)nn1.Cl", "MIC": "> 32"}, {"molecule": "CC(C)CCOc1ccccc1-c1ccccc1OCc1cn([C@H](CCCCN)C(=O)NCCc2ccccc2)nn1.Cl", "MIC": 32}, {"molecule": "COLISTIN", "MIC": 0.25}]}, {"tested_on": "Pseudomonas aeruginosa", "test": "Growth inhibition of Pseudomonas aeruginosa ATCC 27853 incubated for 18 hrs", "format": "organism-based", "details": "not given", "units": {"MIC": "µg/mL"}, "values": [{"molecule": "CC(C)CCOc1ccccc1-c1ccccc1OCc1cn([C@H](CCCCN)C(=O)NCc2ccccc2)nn1.Cl", "MIC": 32}, {"molecule": "CC(C)CCOc1ccc2ccccc2c1-c1c(OCC(=O)N[C@H](CCCNC(=N)N)C(=O)NCCc2ccccc2)ccc2ccccc12.Cl", "MIC": "> 32"}, {"molecule": "CC(C)CCOc1ccccc1-c1ccccc1OCc1cn([C@H](CCCCN)C(=O)NC2CCCCC2)nn1.Cl", "MIC": 32}, {"molecule": "CCCN(CC1CC1)C(=O)[C@@H](CCCNC(=N)N)n1cc(COc2ccccc2-c2ccccc2OCCC(C)C)nn1.Cl", "MIC": "> 32"}, {"molecule": "CC(C)CCOc1ccccc1-c1ccccc1OCc1cn([C@H](CCCCN)C(=O)NCCc2ccccc2)nn1.Cl", "MIC": "> 32"}, {"molecule": "COLISTIN", "MIC": 0.25}]}, {"tested_on": "Staphylococcus aureus", "test": "Growth inhibition of methicillin-resistant Staphylococcus aureus ATCC 43300 incubated for 18 hrs", "format": "organism-based", "details": "not given", "units": {"MIC": "µg/mL"}, "values": [{"molecule": "CC(C)CCOc1ccc2ccccc2c1-c1c(OCC(=O)N[C@H](CCCNC(=N)N)C(=O)NCCc2ccccc2)ccc2ccccc12.Cl", "MIC": 4}, {"molecule": "CC(C)CCOc1ccccc1-c1ccccc1OCc1cn([C@H](CCCCN)C(=O)NC2CCCCC2)nn1.Cl", "MIC": 8}, {"molecule": "CCCN(CC1CC1)C(=O)[C@@H](CCCNC(=N)N)n1cc(COc2ccccc2-c2ccccc2OCCC(C)C)nn1.Cl", "MIC": 8}, {"molecule": "CC(C)CCOc1ccccc1-c1ccccc1OCc1cn([C@H](CCCCN)C(=O)NCCc2ccccc2)nn1.Cl", "MIC": 8}]}, {"tested_on": "not listed separately", "test": "Cytotoxicity against HEK293 cells assessed as decrease in cell viability after 20 hrs by resazurin dye-based fluorescence assay", "details": "human", "units": {"CC50 at 20 h": "µg/mL"}, "values": [{"molecule": "CC(C)CCOc1ccccc1-c1ccccc1OCc1cn([C@H](CCCCN)C(=O)NCc2ccccc2)nn1.Cl", "CC50 at 20 h": "> 32"}, {"molecule": "CC(C)CCOc1ccc2ccccc2c1-c1c(OCC(=O)N[C@H](CCCNC(=N)N)C(=O)NCCc2ccccc2)ccc2ccccc12.Cl", "CC50 at 20 h": "> 32"}, {"molecule": "CC(C)CCOc1ccccc1-c1ccccc1OCc1cn([C@H](CCCCN)C(=O)NC2CCCCC2)nn1.Cl", "CC50 at 20 h": "> 32"}, {"molecule": "CCCN(CC1CC1)C(=O)[C@@H](CCCNC(=N)N)n1cc(COc2ccccc2-c2ccccc2OCCC(C)C)nn1.Cl", "CC50 at 20 h": 19.7}, {"molecule": "CC(C)CCOc1ccccc1-c1ccccc1OCc1cn([C@H](CCCCN)C(=O)NCCc2ccccc2)nn1.Cl", "CC50 at 20 h": "> 32"}]}]}
